According to patent US7868013B2, “Cycloalkyl substituted pyrimidinediamine compounds and their uses” (Rigel Pharmaceuticals, Inc., priority 2004, dated 2011):
Where a name gives a salt, the structure may show the parent alone. Read-outs that look alike come from different tables or passages of the source.

Key:
A549 (lung carcinoma) = assay: In vitro antiproliferation assay, A549 cells (TABLE 1 6 point assay; TABLE 2); assay type: cell-based
Method: (§1) Certain compounds were tested against other cell types for their ability to inhibit proliferation in standard antiproliferation assays.

[1] = system: H1299 (non-small cell lung carcinoma); assay: In vitro antiproliferation assay, H1299 cells (TABLE 1 6 point assay; TABLE 2); assay type: cell-based
Method: as §1

[2] = Homo sapiens, A549, 6 point assay, A549 cells, read-out: IC50, A549 cells
[3] = Homo sapiens, NCI-H1299, 6 point assay, H1299 cells, read-out: IC50, H1299 cells

IC50 (A549 (lung carcinoma); [2])	IC50 [1, 3]	SMILES	also measured
≤ 100 nM	≤ 100 nM	CCS(=O)(=O)N1CCN(c2ccc(Nc3ncc(F)c(NC4C5C=CC(C5)C4C(N)=O)n3)cc2C)CC1 (racemic) [compound 261, Racemic-(2-exo,3-exo)-N4-(3-aminocarbonylbicyclo[2.2.1]hept-5-en-2-yl)-N2-[4-(4-ethylsulfonylpiperazin-1-yl)-3-methylphenyl]-5-fluoro-2,4-pyrimidinediamine]	
≤ 100 nM	≤ 100 nM	Cc1cc(Nc2ncc(F)c(NC3C4C=CC(C4)C3C(N)=O)n2)ccc1NC1CCN(C)CC1 (racemic) [compound 262, Racemic-(2-exo,3-exo)-N4-(3-aminocarbonylbicyclo[2.2.1]hept-5-en-2-yl)-5-fluoro-N2-[3-methyl-4-(1-methylpiperidin-4-ylamino)phenyl]-2,4-pyrimidinediamine]	
≤ 100 nM	100 to 1000 nM	NC(=O)C1C2C=CC(C2)C1Nc1nc(Nc2ccc(C3CCNCC3)cc2)ncc1F (racemic) [compound 264, Racemic-(2-exo,3-exo)-N4-(3-aminocarbonylbicyclo[2.2.1]hept-5-en-2-yl)-5-fluoro-N2-[4-(piperidin-4-yl)phenyl]-2,4-pyrimidinediamine]	
≤ 100 nM	≤ 100 nM	CN1CCC(c2ccc(Nc3ncc(F)c(NC4C5C=CC(C5)C4C(N)=O)n3)cc2)CC1 (racemic) [compound 265, Racemic-(2-exo,3-exo)-N4-(3-aminocarbonylbicyclo[2.2.1]hept-5-en-2-yl)-5-fluoro-N2-[4-(1-methylpiperidin-4-yl)phenyl]-2,4-pyrimidinediamine]	
100 to 1000 nM	100 to 1000 nM	COc1cc(Nc2ncc(F)c(N[C@@H]3[C@H](C(N)=O)[C@H]4C=C[C@@H]3C4)n2)ccc1N1C(=O)CN(C)CC1=O (racemic) [compound 266, Racemic-(2-exo,3-exo)-N4-(3-aminocarbonylbicyclo[2.2.1]hept-5-en-2-yl)-5-fluoro-N2-[3-methoxy-4-(4-methyl-2,6-dioxopiperazino)phenyl]-2,4-pyrimidinediamine]	
≤ 100 nM	≤ 100 nM	NC(=O)C1C2C=CC(C2)C1Nc1nc(Nc2cccc(C3CCNCC3)c2)ncc1F (racemic) [compound 267, Racemic-(2-exo,3-exo)-N4-(3-aminocarbonylbicyclo[2.2.1]hept-5-en-2-yl)-5-fluoro-N2-[3-(piperidin-4-yl)phenyl]-2,4-pyrimidinediamine]	
≤ 100 nM	≤ 100 nM	CN1CCC(c2cccc(Nc3ncc(F)c(NC4C5C=CC(C5)C4C(N)=O)n3)c2)CC1 (racemic) [compound 268, Racemic-(2-exo,3-exo)-N4-(3-aminocarbonylbicyclo[2.2.1]hept-5-en-2-yl)-5-fluoro-N2-[3-(1-methylpiperidin-4-yl)phenyl]-2,4-pyrimidinediamine]	
1000 to 10000 nM	1000 to 10000 nM	Cc1cc(Nc2ncc(F)c(NC3C4C=CC(C4)C3C(N)=O)n2)cc(C)c1N1CCN(C)CC1 (racemic) [compound 271, Racemic-(2-exo,3-exo)-N4-(3-aminocarbonylbicyclo[2.2.1]hept-5-en-2-yl)-N2-[3,5-dimethyl-4-(4-methylpiperazin-1-yl)phenyl]-5-fluoro-2,4-pyrimidinediamine]	
		Cc1cc(Nc2ncc(F)c(NC3C4C=CC(C4)C3C(N)=O)n2)ccc1O (racemic) [compound 277, Racemic-(2-exo,3-exo)-N4-(3-aminocarbonylbicyclo[2.2.1]hept-5-en-2-yl)-5-fluoro-N2-(4-hydroxy-3-methylphenyl)-2,4-pyrimidinediamine Bis- Hydrochloride Salt]	IC50 (A549 (lung carcinoma); 6 point assay, A549 cells, read-out: IC50, A549 cells): ≤ 100 nM; IC50 ([1]; 6 point assay, H1299 cells, read-out: IC50, H1299 cells): ≤ 100 nM
1000 to 10000 nM	1000 to 10000 nM	CN1CCN(C(=O)CCCc2ccc(Nc3ncc(F)c(N[C@H]4CCC[C@H]4C(N)=O)n3)cc2)CC1 (racemic) [compound 278, Racemic-cis-N4-(2-aminocarbonylcyclopent-1-yl)-5-fluoro-N2-{4-[(4-methylpiperazin-1-yl)-butan-1-one-4-yl]phenyl}-2,4-pyrimidinediamine]	
1000 to 10000 nM	1000 to 10000 nM	CN1CCN(C(=O)CCc2ccc(Nc3ncc(F)c(N[C@H]4CCC[C@H]4C(N)=O)n3)cc2)CC1 (racemic) [compound 280, Racemic-cis-N4-(2-aminocarbonylcyclopent-1-yl)-5-fluoro-N2-{4-[(4-methylpiperazin-1-yl)-propan-1-one-3-yl]}phenyl-2,4-pyrimidinediamine]	
1000 to 10000 nM	1000 to 10000 nM	CN1CCN(C(=O)c2ccc(Nc3ncc(F)c(N[C@H]4CCC[C@H]4C(N)=O)n3)cc2)CC1 (racemic) [compound 281, Racemic-cis-N4-(2-aminocarbonylcyclopent-1-yl)-5-fluoro-N2-[4-(4-methylpiperaino-1-yl-carbonyl)phenyl]-2,4-pyrimidinediamine]	
100 to 1000 nM	100 to 1000 nM	Cc1cc(Nc2ncc(F)c(N[C@H]3CCC[C@H]3C(N)=O)n2)ccc1N1CC2CC1CN2C (mixture of isomers) [compound 282, Racemic-cis-N4-(2-aminocarbonylcyclopent-1-yl)-5-fluoro-N2-[3-methyl-4-(5-methyl-(1S,4S)-2,5-diazabicyclo[2.2.1]heptan-2-yl)phenyl]-2,4-pyrimidinediamine]	
100 to 1000 nM	100 to 1000 nM	Cc1cc(Nc2ncc(F)c(N[C@H]3CCC[C@H]3C(N)=O)n2)ccc1N1CC(C)OC(C)C1 (mixture of isomers) [compound 283, Racemic-cis-N4-(2-aminocarbonylcyclopent-1-yl)-N2-[4-(2,6-dimethylmorpholino)-3-methyl]phenyl-5-fluoro-2,4-pyrimidinediamine]	
1000 to 10000 nM	1000 to 10000 nM	Cc1cc(Nc2ncc(F)c(N[C@@H]3CCC[C@H]3C(N)=O)n2)ccc1N1CCN(C)CC1 [15c, (1R,2R)—N4-(2-Aminocarbonylcyclopent-1-yl)-5-fluoro-N2-[4-(4-methylpiperazin-1-yl)-3-methylphenyl]-2,4-pyrimidinediamine]	
> 10000 nM	> 10000 nM	Cc1cc(Nc2ncc(F)c(N[C@H]3CCC[C@@H]3C(N)=O)n2)ccc1N1CCN(C)CC1 [15d, (1S,2S)—N4-(2-Aminocarbonylcyclopent-1-yl)-5-fluoro-N2-[4-(4-methylpiperazin-1-yl)-3-methylphenyl]-2,4-pyrimidinediamine]	
		Cc1cc(Nc2ncc(F)c(N[C@H]3[C@@H](C(=O)NC(C)c4ccccc4)[C@@H]4C=C[C@H]3C4)n2)ccc1N1CCN(C)CC1 (stereo partly drawn) [compound 109, (1R,2R,3S,4S)-N4-5-Fluoro-N4-(3-(R)-alpha-methylbenzylaminocarbonylbicyclo[2.2.1]hept-5-en-2-yl)-N2-[3-methyl-4-(4-methylpiperazin-1-yl)phenyl]-2,4-pyrimidinediamine]	IC50 (A549 (lung carcinoma); Homo sapiens, A549, A549 cells, 6 point assay, read-out: A549, 6pt (IC50, inhibition of proliferation)): 100 to 1000 nM; IC50 ([1]; Homo sapiens, NCI-H1299, H1299 cells, 6 point assay, read-out: H1299, 6pt (IC50, inhibition of proliferation)): 100 to 1000 nM

SMILES	IC50 (A549 (lung carcinoma); [2])	IC50 [1, 3]	also measured
CN1CCN(C(=O)Cc2ccc(Nc3ncc(F)c(N[C@H]4CCC[C@H]4C(N)=O)n3)cc2)CC1 (racemic) [compound 279, Racemic-cis-N4-(2-aminocarbonylcyclopent-1-yl)-5-fluoro-N2-{4-[(4-methylpiperazin-1-yl)-ethan-1-one-2-yl]phenyl}-2,4-pyrimidinediamine]	1000 to 10000 nM	1000 to 10000 nM	
